According to patent US20250339542A1, “CONVERSION OF A BIOLOGICALLY SILENT MIRNA BINDING SMALL MOLECULE TO AN MIRNA DEGRADER” (University of Florida Research Foundation, Incorporated, priority 2020, published 2025):
Where “and” joins values, the source holds several entries; their conditions need not be identical. Identical values can stand only once. Entries after “also recorded” stand apart in the source; their conditions may differ.

Legend:
[1] = tested on: pre-miR-155; assay: RT-qPCR of pre-miR-155 levels in MDA-MB-231 cells; type: cell-based, human
Description: (§1) Tissue Culture. MDA-MB-231 cells were obtained from ATCC (HTB-26) and cultured in RPMI medium with […] & 25 mM HEPES (Corning) supplemented with 10% FBS (sigma). MCF-10a cells were obtained from ATCC(CRL-10317) and cultured in DMEM/F12 50/50 with glutamine and 15 mM HEPES(Corning) containing 20% FBS(Sigma), 1×Antibiotic-Antimycotic(Corning), 20 ng/mL of human epidermal growth factor(Pepro Tech Inc.), 100 μg/mL of insulin and […] of hydrocortisone (Pfizer &Bauer). HUVECs were cultured in EGM (Lonza) made using the EGM-2 bullet kit (Lonza) per the manufacturers protocol.
(§2) RT-qPCR analysis for Mature, Primary and Precursor miRNAs and mRNA levels. After compound treatment for the indicated time (MDA-MB-231 48 h and HUVECs 24 h), total RNA was extracted using the Zymo Quick-RNA mini prep kit according to the manufacturers protocol. Reverse Transcription (RT) for microRNAs and pri- and pre-miR-155 were done on 200 ng of RNA using the miScript II RT kit (Qiagen) according to the manufacturer's protocol. The mRNAs were done using QScript (Quanta Bio) on 200 ng of total RNA according to the manufacturer's protocol. RT-qPCR was done as mentioned above. The obtained data was analyzed by using the ΔΔCt method as described previously. For the washout experiment, MDA-MB-231 cells were treated with 3 for 48 h. Then the media was changed with fresh growth medium without compound and the cells incubated for 12, 24 and 36 h with RNA harvested and pre-miR-155 levels analyzed as described above.
(§3) RT-qPCR analysis for Mature, Primary and Precursor miRNAs and mRNA levels part. Relative RNA expression was determined by using ΔΔCt method with 18S rRNA as an internal control. Normalized fold change was calculated with the equation as below: […]

[2] = tested on: pri-miR-155; assay: RT-qPCR of pri-miR-155 levels in MDA-MB-231 cells; type: cell-based, human
Description: as §1
RT-qPCR analysis for Mature, Primary and Precursor miRNAs and mRNA levels. After compound treatment for the indicated time (MDA-MB-231 48 h and HUVECs 24 h), total RNA was extracted using the Zymo Quick-RNA mini prep kit according to the manufacturers protocol. […] The obtained data was analyzed by using the ΔΔCt method as described previously. […] Then the media was changed with fresh growth medium without compound and the cells incubated for 12, 24 and 36 h with RNA harvested and pre-miR-155 levels analyzed as described above.
as §3

[3] = tested on: RNA isoforms of miR-155 that contain the 5′GAU/3′C_A binding site; assay: RT-qPCR of RNA isoforms of miR-155 (same binding site) in MDA-MB-231 cells; type: cell-based, human; conditions: 48 h
Description: Next, the selectivity of 3 to inhibit miR-155 out of 373 expressed miRNAs in MDA-MB-231 cell was assessed. […] A comparison of their structures to the aforementioned list of miRNAs with potential RIBOTAC sites identified that all except pre-miR-101-1 and pre-let-7g have a RIBOTAC targetable motif.
as §2

[4] = tested on: SOCS1; assay: Western blot of SOCS1 in MDA-MB-231 cells; type: cell-based, human
Description: Western-Blotting. MDA-MB-231 cells were plated in 6 well plates at 150,000 cells/well. And at 50% confluency, cells were treated with Vehicle or 155-ribotac for 48 h. Then the medium was removed and washed with 1× DPBS. The cells were trypsinized and pelleted. The pellets were washed twice with 1× DPBS and then lysed in 50 L of M-PER (Thermo Fisher) buffer with 1× protease inhibitor cocktail (Roche) on ice for 20 min. The lysate was centrifuged at 4° C. for 15 min and the supernatants were collected. Protein concentration were determined using a Pierce Mico BCA Protein Assay kit (Fisher Scientific) according to the manufacturer's protocol. Approximately 20 g of total protein for each sample was resolved on a 10% SDS-polyacrylamide gel and the protein were then transferred to a PVDF membrane. […] After washing with 1× TBST for 15 min for 3 times, SOCS1 protein expression was detected by using SuperSignal West Pico Chemiluminescent Substrate (Pierce Biotechnology).
The membrane was then stripped by Stripping Buffer (200 mM glycine with 0.1% SDS, pH 2.2) for 90 min at RT and then the membrane was washed with 1× TBST for 10 min for 3 times. […] The membrane was then washed with 1× TBST for 10 min for 3 times and j-actin expression level was detected. ImageJ software was used to quantify the protein bands.

[5] = tested on: MDA-MB-231 cells; assay: Migration assay of MDA-MB-231 cells; type: cell-based; conditions: Homo sapiens, compound 3 at 1×10^−7 M, read-out: inhibition of cellular migration
Description: (§4) Migration Assay: The Migration assay was performed the same as previous publication^15. Briefly, MDA-MB-231 cells were serum starved for 12 h in RPMI medium without FBS. Then, samples of 50,000 cells treated with vehicle or 155-Ribotac in serum starved medium were seeded into Hanging cell culture Inserts with 8.0 µm pores for 24 well plate with complete growth medium in the bottom well. After 20 h, the medium was aspirated and the inserts and the bottom wells were washed with DPBS twice. Then to the bottom well were added 400 µL of 4% paraformaldehyde. After fixing for 20 min. The inserts and wells were washed with DPBS twice and then treated with 400 µL of 0.1% crystal violet solution. After 20 min, the wells and inserts were washed with water twice and PBS once. Cotton swabs were used to remove the cells inside the inserts. Migration inserts were completely air-dried and imaged by using a Leica DMI3000 B upright fluorescent microscope.

[6] = tested on: MCF-10a cells; assay: Migration assay of transfected MCF-10a cells; type: cell-based; conditions: mock transfected MCF-10a cells
Description: Lastly, the dependence of migration on miR-155 and the activity of 3 on the presence of the 5′GAU/3′C_A bulge was assessed. MCF-10a cells, a model of healthy breast epithelium, were transfected with wild type pre-miR-155 and mutant pre-miR-155, where the 5′GAU/3′C_A bulge is mutated to an AU base pair. […] Treatment with 3 reduced migration of MCF-10a cells transfected with WT pre-miR-155 by 60%, in contrast to mutant miR-155 expressing cells in which the compound's binding site has been ablated, the migration of which was unaffected by 3 treatment.
as §4, with “Migration inserts were completely air-dried and imaged by using a Leica DMI3000 B upright fluorescent microscope.” left out

[7] = tested on: pre-miR-155; assay: RT-qPCR of pre-miR-155 levels in HUVECs; type: cell-based, human
Description: as §1, §2

[8] = tested on: miR-155; assay: RT-qPCR of miR-155 levels in HUVECs; type: cell-based, human
Description: as §1, §2

[9] = tested on: Von-Hippel Lindau (VHL); assay: Western blot of VHL in HUVECs; type: cell-based, human
[10] = tested on: HUVECs; assay: Angiogenesis: tubule network formation of HUVECs on Matrigel; type: cell-based, human
Description: Lastly, compound 3's (Formula I) effect on VHL protein and angiogenesis in HUVECs was studied. […] Since upregulation of VHL should attenuate the angiogenic capacity of HUVECs, their ability to differentiate into tubule networks on Matrigel as previously described was measured.^24 Treatment with compound 3, caused a decrease of 29% (100 vs. 140 branch points) in tubule branching for differentiated HUVECs. Although small, this decrease does correspond with suppression of miR-155 and de-repression of VHL, which is in line with the initial study by Kong et al. who observed a 42% reduction in branching points (FIG. 21I).^38 Taken together compound 3 degrades miR-155 in HUVECs with low nanomolar activity and is able to attenuate their angiogenic capacity.

[11] = tested on: miR-155; assay: RT-qPCR of mature miR-155 levels in MDA-MB-231 cells; type: cell-based, human; conditions: 48 h
Description: as §1, §2, §3

[12] = biological target: T1, RNase L / pre-miR-155 (Homo sapiens, UniProt Q05823); assay: Immunoprecipitation of RNase L from MDA-MB-231 cells, RT-qPCR of pre-miR-155; type: cell-based; conditions: 100 nM, 48 h, relative to untreated
T1 construct: RNase L was immunoprecipitated from MDA-MB-231 cells; endogenous in cells; host or cells: MDA-MB-231
T1 sequence (Q05823 1-741): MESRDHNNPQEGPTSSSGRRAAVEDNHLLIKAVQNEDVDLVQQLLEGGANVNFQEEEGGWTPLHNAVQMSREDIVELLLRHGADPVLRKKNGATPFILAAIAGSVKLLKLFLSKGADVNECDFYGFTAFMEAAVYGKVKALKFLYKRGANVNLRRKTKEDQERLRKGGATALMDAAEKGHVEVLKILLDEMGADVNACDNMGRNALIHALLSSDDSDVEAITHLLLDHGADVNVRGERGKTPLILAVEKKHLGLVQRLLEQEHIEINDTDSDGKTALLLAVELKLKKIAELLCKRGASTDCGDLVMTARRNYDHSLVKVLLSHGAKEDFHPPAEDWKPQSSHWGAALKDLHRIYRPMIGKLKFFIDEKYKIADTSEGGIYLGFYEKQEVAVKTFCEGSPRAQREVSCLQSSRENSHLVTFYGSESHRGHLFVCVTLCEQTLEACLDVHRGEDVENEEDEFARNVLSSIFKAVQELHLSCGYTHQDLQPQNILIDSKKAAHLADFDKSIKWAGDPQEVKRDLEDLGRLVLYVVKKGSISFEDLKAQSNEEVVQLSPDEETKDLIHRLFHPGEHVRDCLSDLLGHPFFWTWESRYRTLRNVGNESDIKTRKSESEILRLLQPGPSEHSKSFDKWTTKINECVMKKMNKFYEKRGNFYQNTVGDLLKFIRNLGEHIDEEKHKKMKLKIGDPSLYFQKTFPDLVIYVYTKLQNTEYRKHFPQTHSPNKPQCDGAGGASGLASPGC
Description: Immunoprecipitation of RNase L. RNase L immunoprecipitation is performed according to published procedures.^16 Briefly, at […], MDA-MB-231 cells were treated with vehicle, 100 nM of 3 or 5 for 48 h. Cells were then washed with DPBS, and detached by scraper. The collected cells were lysed in 100 L of M-PER buffer(78503, Thermo Fisher) containing 1× Protease Inhibitor Cocktail III for Mammalian Cells (Research Products International Corp.) and 80 U of RNaseOUT Recombinant Ribonuclease Inhibitor (Invitrogen) per the manufacture's protocol. The samples were centrifuged at 13,000×g at 4° C. Protein concentration was determined by using a Pierce Mico BCA Protein Assay kit (Fisher Scientific). Approximately 200 g of the total protein per sample was incubated at 4° C. overnight with Dynabeads Protein A (Life Technologies) bound to either RNase L mouse primary antibody (Santa Cruz Biotechnology: sc-74405) or j-actin mouse primary antibody (Cell signaling: 8H10D10). Beads were then washed with 1× DPBST (1× DPBS supplemented with 0.02% Tween-20) for 3 times, after which RNA was extracted by using a miRNeasy Mini Kit (Qiagen) per the manufacturer's instructions. RT-qPCR was performed the same as mentioned above.

Row | enrichment of pre-miR-155 in RNase L pulldown fractions [12] | SMILES | degradation of pre-miR-155 ([1]; MDA-MB-231 cells, 1×10^−7 M, 48 h) [%] | degradation of pre-miR-155 ([1]; MDA-MD-231 and/or HUVEC cells, 0.1 micromolar, summary) [%] | degradation of the primary transcript (pri-miR-155) [2] [%] | effect on RNA isoforms of miR-155 [3] | de-repression of SOCS1 [4] [%] | upregulation of SOCS1 [4] [fold] | inhibition at 0.1 µM [5] [%] | effect on migration [6] | lowest concentration showing cleavage of pre-miR-155 [7] [nM] | inhibition at 0.001 µM ([7]; Homo sapiens, HUVEC, 1×10^−9 M) [%] | lowest concentration showing reduction of miR-155 levels [8] [nM] | inhibition at 0.001 µM ([8]; Homo sapiens, HUVEC, 1×10^−9 M) [%] | de-repression of VHL ([9]; 10 nM) [%] | de-repression of VHL ([9]; 1×10^−7 M) [fold] | inhibition of angiogenic capacity / decrease in tubule branching ([10]; differentiated HUVECs on Matrigel) | branch points ([10]; differentiated HUVECs, treated (vs. 140 untreated)) | effect on miR-155 levels / miR-155 biogenesis [11] | effect on pre-miR-155 levels [7] | effect on miR-155 levels [8]
1 |  | CCOC(=O)C1=C(Nc2ccccc2)S/C(=C\c2ccc(OCCOCCOCCOCCNC(=O)CCc3c(C)n(-c4c(C(C)C)cccc4C(C)C)c[n+]3-c3c(C(C)C)cccc3C(C)C)c(O)c2)C1=O [Compound 3] | 60 | ≥ 60 | 43 | no effect | 50 | 1.6 | 50 | inactive | ≤ 1 | 50 | ≤ 1 | 50 | 50 | 1.5 | 20% and 29% | 100 |  |  | 
2 | no enrichment | CCOC(=O)C1=C(Nc2ccccc2)S/C(=C\c2ccc(O)c(OCCOCCOCCOCCNC(=O)CCc3c(C)n(-c4c(C(C)C)cccc4C(C)C)c[n+]3-c3c(C(C)C)cccc3C(C)C)c2)C1=O [Compound 5] |  |  |  |  |  |  |  |  |  |  |  |  |  |  |  |  | no effect; also recorded: does not inhibit | no effect | no effect
